Values of other authors as cited in US20100322881A1, “UVB FILTER BASED ON ASCORBIC ACID DERIVATIVES” (MERCK PATENT GESELLSCHAFT, priority 2008, published 2010).

Test system: prolyl-4-hydroxylase
Details: literature statement; for supporting the activity of the enzyme prolyl-4-hydroxylase: Biochem. J. 1994, 300, 75-79

Row | Compound | supporting the activity of the enzyme prolyl-4-hydroxylase | affinity to the enzyme (compared with the monosubstituted compound)
1 | CC(=O)Oc1ccccc1C(=O)OC[C@H](O)[C@H]1OC(=O)C(O)=C1O [O^6-(2-acetoxybenzoyl) L-ascorbate] | capable of supporting the activity | 
2 | CC(=O)Oc1ccccc1C(=O)OC[C@H](OC(=O)c1ccccc1OC(C)=O)[C@H]1OC(=O)C(O)=C1O [O^5O^6-bis(2-acetoxybenzoyl) L-ascorbate] | capable of supporting the activity | lower affinity
